Reference: patent US20020076412A1, “METHODS FOR MODULATING THE IMMUNE SYSTEM” (priority 1987, published 2002)
Where “and” joins values, the source holds several entries; their conditions need not be identical. Equal entries are not always repeated.

Legend:
EAE (RAT) [1] = experiment: Ability of peptide mixed in CFA to cause EAE; assay type: in vivo; details: rats with EAE / rats immunized with the peptide alone in CFA
Protocol: (§1) The peptides were tested for their ability to cause EAE when mixed in CFA. […] It was seen that Ala4, Ala6, Ala7, and Ala8 are poor binders to I-E, implying that these residues 4F,6N,7I, and 8V are critical in MHC binding. […] Despite their inability to bind well to I-E, peptides ala6 and ala8 block the development of EAE when mixed with native peptide in a 5:1 molar ratio with CFA (0/6 sick with native plus ala6, 2/6 with native plus ala8, compared to 11/12 with native peptide alone). These competitor peptides Ala6 and Ala8, though poor I-E binders can apparently compete with native peptide and antagonize the T-cell receptor.

I-E = experiment: MHC I-E binding of substituted MBP 87-99 peptides; design: species or system rat; details: for IC50: read-out: (M*C) IC50 I-E Binding
Description: A set of substituted peptides based on the sequence VHFFKNIVTPRT (Seq. ID No. 39), which is identical in rats, mice and human myelin basic protein (MBP), and corresponds to the I-E restricted epitope MBP 87-99 in the rat was produced. The peptides are shown in Table 1 (Seq. ID Nos. 39 to 52 respectively) MHC binding was measure say described in Smilek et al, 1991, Gautam et al 1992a&b.

CTL = CTL assay with substituted peptides; assay type: cell-based
87-99 T-cell line [2] = experiment: Proliferation of encephalitogenic T-cell line raised against native peptide (87-99); assay type: cell-based, rat; details: stimulation of T-cell line raised against native 87-99; grades negative to 4+, key not given
Protocol: As noted above, candidate peptide analogues are first tested for their property of causing or inhibiting proliferation of T-cell lines. In the proliferation assay, MBP reactive T-cell lines may be used as target cells. T-cell lines are established from lymph nodes taken from rats injected with MBP. Lymph node cells are isolated and cultured for 5 to 8 days with MBP and IL-2 as a source of T-cell growth factors. Viable cells are recovered and a second round of stimulation is performed with MBP and irradiated splenocytes as a source of growth factors. After 5 to 6 passages in this manner, the proliferative potential of the cell lines are determined. MBP-reactive lines are used in the proliferation assay. In this assay, T-cell lines are cultured for three days with various concentrations of peptide analogues and irradiated, autologous splenocytes. After three days, 0.5-1.0 μCi of [^3H]-thymidine is added for 12-16 hours. Cultures are harvested and incorporated counts determined. Mean CPM and standard error of the mean are calculated from triplicate cultures.
Development of MBP-specific T-cell lines in the rat: T-cell lines are selected from LN or SC (spinal cords) of rats immunized with guinea pig myelin basic protein or with MBP peptide (200 μg) in CFA. Supernatants from ConA-stimulated Lewis rat splenocytes are used as the source of IL-2 to expand Ag-stimulated T-cells.
(§2) Proliferation Assay: Proliferative responses were determined as described previously (Zamvil, et al., Nature 317:355, 1985). 1×10^4 T-cells were cultured with 5×10^5 X-irradiated (3,000 rad) PL/J splenic APC in 0.2 ml of culture media in 96 well flat-bottomed microtiter plates (Falcon, 3072). Peptides were added to culture giving the final concentrations indicated. At 48 hours incubation, each well was pulsed with 1 μCi ^3H-thymidine and harvested 16 hours later. The mean c.p.m. thymidine incorporation was calculated for triplicate cultures. Standard deviations from replicate cultures were within 10% mean value. Proliferation assays were performed in 96-well microtiter plates. Briefly, 2×10^4 T-cells and 10^6 irradiated thymocytes/well were incubated with stimulation medium only, Con A, or antigen. The cultures were harvested onto glass fiber filters and TdR uptake was assessed by liquid scintillation. Mean cpm were calculated from triplicate wells. In some experiments, competitor peptides, or anti I-A (OX-6) or anti-I-E antibodies (OX-17) were used to evaluate which MHC molecules were used to restrict the T-cell response, or to determine whether peptides could antagonize stimulation by the native peptide.

87-99 T-cell line [3] = experiment: Competition assay for T-cell proliferation with native peptide; assay type: cell-based, Lewis rat; details: blocking of proliferation of 87-99 T-cell line when given with native peptide in vitro
Protocol: The second assay is a competition assay for T-cell proliferation. In this assay, antigen presenting spleen cells are first irradiated and then incubated with native MBP peptide for 2-4 hours. These cells are then washed and further cultured with T-cells reactive to MBP. Various concentrations of candidate peptide analogues are included in cultures for an additional 3 days. Following this incubation period, each culture is pulsed with 1 μCi of [^3H]-thymidine for an additional 12-18 hours. Cultures are then harvested on fiberglass filters and counted as above. Mean CPM and standard error of the mean are calculated from data determined in triplicate cultures. Peptide analogues which inhibit proliferation to approximately 25% at a concentration of 50 μM or greater are suitable for further screening.
as §2, §1

EAE (RAT) [4] = experiment: Prevention of EAE, competitor mixed with native peptide 5:1 in CFA; assay type: in vivo; details: sick/total; competitor plus native peptide 5:1 molar ratio in CFA; native line = native peptide alone
Protocol: as §1

MS patients = details: cited from earlier work
EAE = experiment: Competition with Ala6 and Ala5 for prevention of EAE with MBP (Table 3); assay type: in vivo, mice; details: peptide alone 0.2 mg in CFA; number with clinical EAE/number immunized; listed as Native MBP Peptide
Protocol: Incidence of EAE was expressed as number of mice with clinical EAE/number of mice immunized. For the induction of EAE, MBP peptide was dissolved in phosphate buffered saline (PBS) and emulsified with complete Freund's adjuvant (CFA) in a 1:1 mixture of PBS and CFA. Mice were injected with 0.2 ml emulsion at the base of the tail. On the same day and 48 h later, pertussis toxin (List Chemicals, Campbell, Calif.) was injected intravenously. Mice were examined daily for signs of EAE. For prevention of EAE, animals were immunized with MBP (0.2 mg), or in a mixture with the competitor peptide (1 mg).

| binding to I-E / MHC (in words) (I-E) | IC50 (I-E) [µM] | Molecule | EAE (RAT) (EAE (RAT) [1]) | CTL (CTL) | EAE (RAT) (EAE (RAT) [1]; listed as Ala8) | Prolif. (87-99 T-cell line [2]) | Comp Assay Prolif (RAT) (87-99 T-cell line [3]) | Comp Assay Prolif (RAT) (87-99 T-cell line [3]; listed as Ala8) | EAE (RAT) (EAE (RAT) [4]) | specific response to MBP (MS patients; in vivo) | Incidence of EAE (EAE) | patients with clinical exacerbation (MS patients; within one month after initiation of treatment) |
| --- | --- | --- | --- | --- | --- | --- | --- | --- | --- | --- | --- | --- |
| poor binders | > 200 | CC(C)[C@H](N)C(=O)N[C@@H](Cc1c[nH]cn1)C(=O)N[C@@H](Cc1ccccc1)C(=O)N[C@@H](Cc1ccccc1)C(=O)N[C@@H](CCCCN)C(=O)N[C@@H](CC(N)=O)C(=O)N[C@@H](C)C(=O)N[C@H](C(=O)N[C@H](C(=O)N1CCC[C@H]1C(=O)N[C@@H](CCCNC(=N)N)C(=O)N[C@H](C(=O)N1CCC[C@H]1C(=O)O)[C@@H](C)O)[C@@H](C)O)C(C)C [Ala 7] | 6/6 | plus |  |  |  |  |  |  |  |  |
| poor binders | > 200 | CC[C@H](C)[C@H](NC(=O)[C@H](CC(N)=O)NC(=O)[C@H](CCCCN)NC(=O)[C@H](Cc1ccccc1)NC(=O)[C@H](Cc1ccccc1)NC(=O)[C@H](Cc1c[nH]cn1)NC(=O)[C@@H](N)C(C)C)C(=O)N[C@@H](C)C(=O)N[C@H](C(=O)N1CCC[C@H]1C(=O)N[C@@H](CCCNC(=N)N)C(=O)N[C@H](C(=O)N1CCC[C@H]1C(=O)O)[C@@H](C)O)[C@@H](C)O [Ala 8] | 1/15 | plus | incapable of causing EAE | weakly stimulate | plus | can block proliferation | 2/6 |  |  |  |
|  |  | IFN-γ: cytokine administered in a pilot study to alleviate symptoms of MS |  |  |  |  |  |  |  | increase |  |  |
|  | 14 | CC[C@H](C)[C@H](NC(=O)[C@H](CC(N)=O)NC(=O)[C@H](CCCCN)NC(=O)[C@H](Cc1ccccc1)NC(=O)[C@H](Cc1ccccc1)NC(=O)[C@H](Cc1c[nH]cn1)NC(=O)[C@@H](N)C(C)C)C(=O)N[C@H](C(=O)N[C@H](C(=O)N1CCC[C@H]1C(=O)N[C@@H](CCCNC(=N)N)C(=O)N[C@H](C(=O)N1CCC[C@H]1C(=O)O)[C@@H](C)O)[C@@H](C)O)C(C)C [native, reference compound] | 21/21 | nega- |  |  | MINUS |  | 11/12 |  | 11/12 and 6/6 |  |
|  |  | IFN-γ: cytokine administered in a pilot study to alleviate symptoms of MS (protein, UniProt P01579 24-161, looked up) Interferon gamma: QDPYVKEAENLKKYFNAGHSDVADNGTLFLGILKNWKEESDRKIMQSQIVSFYFKLFKNFKDDQSIQKSVETIKEDMNVKFFNSNKKKRDDFEKLTNYSVTDLNVQRKAIHELIQVMAELSPAAKTGKRKRSQMLFRG |  |  |  |  |  |  |  |  |  | 7 of 18 |
